From patent US11237156B2, “Method and composition for detection of peptide cyclization using protein tags” (Roche Sequencing Solutions, Inc., priority 2016, dated 2022)
No end group written: not given here.

Experiments:
streptavidin-Cy5 = streptavidin-Cy5 (Streptomyces avidinii, UniProt P22629); assay: Streptavidin-Cy5 binding to cyclic/linear peptide microarray (fluorescence); conditions: for cyclic fluorescent intensity: cyclic subarray
Experimental: Slides were bound with […] streptavidin-Cy5 in 30 mL binding buffer for 30 minutes at room temperature. Binding buffer contained 1% alkali soluble casein and 0.05% tween-20 in 1×TBS, pH 7.4. After 30 minutes, slides were washed twice in 1×TBS buffer for 1 minute, water for 30 seconds, and spun to dryness.
Cy5 fluorescence intensity of the arrays was measured with MS200 scanner (Roche NimbleGen) at resolution 2 um, wavelength 635 nm, gain 25% and laser intensity 100%. Cy5 signal intensities were extracted using Image Extraction Software (Roche NimbleGen). Data pre-processing, normalization and statistical tests were done in R. Data visualization and analysis were performed with Spotfire 6.5.0 (Tibco, Boston, Mass.) software platform.

anti-Myc antibody = assay: Myc sequence maturation binding assay (single substitutions, signal intensity)
Source text: A fragmented protein tag was designed to be specific for the anti-Myc antibody near the N-terminus and C-terminus of the peptide tag, while having low specificity in the middle of the sequence to assist with attachment to a microarray surface through an amino acid side chain. It is to be understood that in some embodiments the amino acid attached to the microarray surface can be near either end of the peptide tag and not necessary closer to the middle of the peptide tag. […] A maturation of the Myc (EQKLISEEDLG (SEQ ID NO: 233)) tag was performed with the tag in the linear form. Each amino acid in the 11 mer peptide was substituted with each of the remaining 19 amino acids. As further described below, the process was repeated until the desired specificity at each position was achieved.
Referring to FIG. 29, the initial Myc sequence (EQKLISEEDLG (SEQ ID NO: 233)) was modified at positions 1-11 and signal intensity (y-axis) was measured.

anti-FLAG antibody = assay: FLAG-based sequence maturation binding assay (single substitutions, signal intensity); conditions: for signal intensity after single mutation of the precursor sequence: linear tag on microarray, each position substituted with remaining 19 natural amino acids
Experimental: A fragmented peptide tag was designed to be specific for the anti-FLAG antibody near the N-terminus and C-terminus of the peptide tag, while having low specificity in the middle of the sequence to assist with attachment to a microarray surface through an amino acid side chain. […] A maturation of the FLAG (GDYKDDDDKGG (SEQ ID NO: 232)) tag was performed with the tag in linear form. Each amino acid in the 11 mer peptide was individually substituted with each of the remaining 19 amino acids. As further described below, the process was repeated with modified sequences until the desired specificity at each position was achieved.
Referring to FIG. 25, the initial FLAG sequence (GDYKDDDDKGG (SEQ ID NO: 232)) was modified at each of positions 1-11 individually with each of the remaining 19 natural amino acids, and signal intensity (y-axis) was measured.

Cy5 anti-Myc mouse mAB = assay: Cyclization tag assay, anti-Myc binding to peptide microarray; conditions: cyclization tag compared with fragmented control
Source text: (§1) With the matured linear protein tags at hand, the linear peptides were formed on a microarray where the tags were fragmented across the N- and C-terminus of the peptide such that upon cyclization, the complete protein tag is formed. The peptides were split around the low specificity position identified according to Examples 2 and 4 (position 6, for both tags), and that position was substituted with allyl-E (see FIG. 1). A flexible linker (Z) was inserted between the two peptide tag fragments to increase flexibility. Z was a 3:1 mixture of Gly:Ser. The linear peptide sequences are shown in Table 1 for the FLAG- and Myc-based sequenced in the row titled “Cyclization tag.” In addition to the cyclization tags, two controls were compared to each tag. The matured linear sequences identified according to Examples 2 and 4 (shown in Table 1 in the row titled “Linear control”) were formed on the microarray and tested as positive controls. […]
(§2) Cy3 and Cy5 fluorescence intensity of the arrays was measured with MS200 scanner (Roche NimbleGen) at resolution 2 um, wavelength 532 nm or 635 nm, gain 25% and laser intensity 100%. […]

Cy3 anti-FLAG mouse mAB = assay: Cyclization tag assay, anti-FLAG binding to peptide microarray; conditions: cyclization tag compared with fragmented control
Source text: as §1, §2

[1] = extension of HPQ-specific design, all J combinations of JXXHPQXXJU
[2] = single substitution scan of the matured tag

Sequence of streptavidin-Cy5 (P22629 25-183): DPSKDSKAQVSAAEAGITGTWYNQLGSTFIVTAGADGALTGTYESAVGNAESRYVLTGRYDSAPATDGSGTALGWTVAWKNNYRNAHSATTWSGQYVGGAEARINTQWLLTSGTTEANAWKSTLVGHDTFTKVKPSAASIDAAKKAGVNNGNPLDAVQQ

Q: How did the cyclic fluorescent intensity (streptavidin-Cy5; [1]) turn out when “LYDHPQNGGU (cyclo(LYDHPQNGGE); also: Glu10 surface-linked) [cylic LYDHPQNGGU]” was run?
A: The cyclic fluorescent intensity was “highest cyclic intensity”.

Q: Which results are given for EQKLISEEDWG [L10W-Myc tag]?
A: signal intensity after single mutation of the precursor sequence (anti-Myc antibody; linear tag on microarray, positions 1-11 modified): strongest increase in signal intensity; specificity by sequence position for the anti-Myc antibody (anti-Myc antibody; [2]): strong specificity on the N-terminus (position 1-5) and moderate specificity on the C-terminus

Q: WDYKDDDDKGG [G1W-FLAG tag] was tested. Which “signal intensity after single mutation of the precursor sequence” value (anti-FLAG antibody) did it give?
A: The value was “strongest increase in signal intensity”.

Q: With NQpWU [cylic NQpWU] as the substance, how does the cyclic fluorescent intensity (streptavidin-Cy5; peptide library of format XXXXU) read?
A: The cyclic fluorescent intensity was “highest cyclic fluorescent intensity”.

Q: Which results are given for “QNDHPQNGGU (cyclo(QNDHPQNGGE); also: Glu10 surface-linked) [cyclic QNDHPQNGGU]”?
A: log fold change (log FC) between cyclic and linear fluorescent intensity (streptavidin-Cy5; extension of HPQ-specific design, JXXHPQXXJU): high log FC; cyclic fluorescent intensity (streptavidin-Cy5; [1]): high cyclic intensity

Q: How did the “specificity by sequence position for the anti-FLAG antibody” value (anti-FLAG antibody; [2]) turn out when “WDYKDFDQKGG [G1W, D6F, D8Q-FLAG tag, matured FLAG tag, position 8 mutated to glutamine]” was run?
A: Its value is “specificity for the anti-FLAG antibody on the N-terminus (position 1-4) and the C-terminus (position 7-8)”.

Q: Which “signal intensity after single mutation of the precursor sequence” value (anti-FLAG antibody) does the source give for “WDYKDFDDKGG [G1W, D6F-FLAG tag, G1W-FLAG tag with position 6 mutated to phenylalanine]” here?
A: Its value is “strongest increase in signal intensity”.

Q: With “EEDWGZZZZEQKLI{allyl-E} (EEDWGXXXXEQKLIE; not fully specified (residue 15); printed as EEDWGZZZZEQKLI{allyl-E}; also: X6-X9: Gly or Ser mixture) [Myc cyclization tag, fragmented Myc-based tag on microarray, Z = 3:1 mixture of Gly:Ser, cyclized via allyl-E]” as the substance, how does the median fluorescence (Cy5 anti-Myc mouse mAB) read?
A: The median fluorescence was “higher than that of the fragmented control peptides”.

Q: “DQKGGZZZZWDYKD{allyl-E} (DQKGGXXXXWDYKDE; not fully specified (residue 15); printed as DQKGGZZZZWDYKD{allyl-E}; also: X6-X9: Gly or Ser mixture) [FLAG cyclization tag, fragmented FLAG-based tag on microarray, Z = 3:1 mixture of Gly:Ser, cyclized via allyl-E]” was tested. Which median fluorescence (Cy3 anti-FLAG mouse mAB) did it give?
A: The median fluorescence was “higher than that of the fragmented control peptides”.
